# Measurements reported in US20100226981A1, “ORAL DOSAGE FORMS HAVING A HIGH LOADING OF A GABAPENTIN PRODRUG” (XenoPort, Inc., priority 2009, published 2010).
# Experiments:
# [1] = dosed either orally or directly into the colon of a mammal; cited from earlier work
# [2] = Flow characterization of dry powders and granulations (density, Carr, Hausner, Flodex); assay type: physicochemical; settings: ungranulated, no water
# Description: The flow of dry powders was characterized using a FLODEX™ Powder Flowability Index Test Instrument (Hanson Research Corporation, Chatsworth, Calif.). The instrument was equipped with a cylindrical metal reservoir, which holds the test powder prior to flow testing. The cylindrical reservoir has an inside diameter of 5.7 cm and a length of […]. The bottom end of the reservoir can be closed with removable metal discs. Each disc has a round orifice centered in the disc. Orifice diameters range from 4 mm to 10 mm in 1 mm increments, and from 10 mm to 34 mm in 2 mm increments. Prior to flow testing, the orifice is blocked. Powder is then placed over the blocked orifice. When the orifice is unblocked, powder can flow through the orifice under the force of gravity if the orifice diameter is sufficiently large. Powder that flows through small orifices is considered to have flow properties useful for tableting. For example, a Flodex measurement (Flodex) of less than about 24 mm is typically used for high-speed tableting operations at commercial scale. A Flodex less than about 20 mm is useful for high-speed tableting operations. A Flodex of 18 mm or less is considered especially useful for high throughput tableting operations.
# The Flodex is determined by first gently filling the reservoir while the orifice at the bottom is blocked with approximately 70 cc of test powder, while avoiding severe piling, and without vibrating or tapping the powder bed. Next, the orifice is unblocked. This can be accomplished by opening a shutter that is supplied with the instrument. Alternatively, if a shutter is not used, the powder-filled reservoir fitted with a disc can be set on a dry, flat surface to block the orifice. Then, slowly and evenly, the reservoir is lifted to allow the powders to flow. In either procedure, if the powder flows through the orifice, a clear channel is left within the powder bed. […] The flow test is conducted with various orifice sizes until the minimum orifice size for good flow is identified, which is referred to as the Flodex.
# The impact of the amount of water used during high shear wet granulation on the strength of granules was determined. Granulations containing either 98 wt-% compound (1), 1 wt-% METHOCELT™-E4M and 1 wt-% SLS, or 97 wt-% compound (1) and 3 wt-% METHOCEL™-E4M, were prepared using from 20 wt-% to 30 wt-% water, dried, and the granule strength measured by determining the air pressure at which the particles began to fracture using a Sympatec particle analyzer (QicPic/RODOS-L/VIBRI-L, Sympatec GmbH, Clausthal-Zellerfeld, DE).
# The Main Blend contained 98 wt-% compound (1), 1 wt-% METHOCELT™-E4M, and 1 wt-% SLS. Blend D contained 90 wt-% granules blended with 8 wt-% METHOCEL™-K100M and 2 wt-% magnesium stearate, and Blend E contained 89 wt-% granules blended with 8 wt-% METHOCEL™-K100M and 3 wt-% magnesium stearate and were prepared as described in Example 4.
structure (smiles),measurement,setting,value
"CC(OC(=O)NCC1(CC(=O)O)CCCCC1)OC(=O)C(C)C (stereo not drawn) [Compound (1), 1-([(α-Isobutanoyloxyethoxy)carbonyl]aminomethyl)-1-cyclohexane acetic acid]",bioavailability as gabapentin,[1],high bioavailability as gabapentin
same,Bulk Density,[2],0.329 gm/mL
same,Carr Index,[2],27.0
same,Flodex,[2],>34 mm
same,Hausner Ratio,[2],1.37
same,Tap Density,[2],0.450 gm/mL
